Data reported in patent US7723072B2, “Polypeptide factor from a thermophilic eubacterial species and use thereof in the production of functional, heterologous proteins in an expression host” (University of Limerick, priority 2003, dated 2010).
Like-named read-outs stand apart in the source and are kept apart here.

Key:
Format in all cases: cell-based
E. coli JM83 = assay: Minimal inhibitory concentrations (MICs) for metal cations, E. coli JM83; conditions: 40 h at 37° C.
[1] = tested on: E. coli JM83 containing pUC
[2] = tested on: E. coli JM83 containing pUC with cloned czrB; assay: Minimal inhibitory concentrations (MICs) for metal cations, JM83 containing pUC with cloned czrB; conditions: clone +pUC-czrB
E. coli cultures [3] = assay: Phage titers of E. coli clones; conditions: pHB102 vs pHB102-czrB; 10 and 22 h after induction
Experimental: (§1) Individual clones were analysed by restriction digestion after 22 h of induction to confirm that they contained both the Thermus insert and the recombinant antibody gene. […] Immunoplate wells (Nunc) were coated with 100 μl of FITC-BSA and blocked with 5% skimmed milk in PBST. After washing, 100 μl of phage solutions containing 0.5% skimmed milk were added and incubated for 2 h at 25° C. Phage particles were detected using a peroxidase-conjugated anti-M13 antibody (1:3000 in PBST; Amersham Pharmacia Biotech Inc.) and development was carried out using a BM Blue POD soluble substrate (Roche Diagnostics). After stopping the reaction using 25 μl of 1 N H2SO4, the absorbance was read at 405 nm. […] The results are depicted in FIGS. 6 and 7.
FIG. 6 depicts phage titers of clones expressing czrB. The phage titers of clones containing pHB102 phagemid vector or pHB102-czrB expressed as colony forming units (cfu) were determined 10 and 22 h after induction.

E. coli cultures [4] = assay: Anti-FITC ELISA of phage-displayed functional antibody; conditions: 10 and 22 h after induction
Experimental: as §1
FIG. 7 depicts ELISA analysis of clones expressing czrB. […] Results are shown for samples taken 10 and 22 h after induction.

E. coli cells [5] = assay: Growth (OD600) of E. coli clones during bacteriophage and recombinant antibody production; conditions: pHB102 phagemid, during phage and antibody production
Experimental: E. coli cells harbouring the Thermus library were inoculated to an OD600<0.05 in 10 ml 2xYT medium containing tetracycline (15 μg/ml), additional salts (8.6 mM NaCl; 2.5 mM KCl; 10 mM MgCl2) and 0.4% glucose. After 1 h at 37° C., 30 μg/ml chloramphenicol was added, followed by 10^10 pfu of helper phage (VCSM13 helper phage; Stratagene) at an OD600 of 0.5. Incubation at 50° C. for 5 min was followed by the addition of 50 ml 2xYT containing tetracycline, chloramphenicol, additional salts and 0.5 mM isopropyl-β-D-thiogalactoside (IPTG). The culture was shaken at 40° C. for 2 h and, after the addition of 30 μg/ml kanamycin, grown for a further 12-14 h at 40° C. Phage particles were precipitated from culture supernatants by two PEG precipitation steps and resuspended in 1 ml PBS (8 g NaCl, 0.24 g KH2PO4, 1.44 g Na2HPO4, 0.2 g KCl in 1 L, pH 7.4). Immunotubes (Nunc) were coated overnight at 4° C. with 1 μg/ml fluorescein-isothiocyanate coupled to bovine serum albumin (FITC-BSA) (Bothmann, H. and Plückthun, A (1998) supra) in PBS. […]
E. coli cells infected with phage were grown as described in Example 1. The OD600 was read at hourly intervals for the first 8-10 h after induction. […]

E. coli cells [6] = assay: Intracellular zinc concentration in E. coli clones (atomic absorption); conditions: 1 h incubation in 0, 1, 2, 5 mM extracellular zinc; vs JM83 and pUC alone
From the text: Metal resistances of the type observed with the czrB clones can be the result of metal sequestering or modification of metal transport processes. However, based on reports of CzrB homologues in other organisms it was postulated that the protein CzrB provided resistance to heavy metal ions by an efflux mechanism rather than by metal sequestering. Therefore, the ability of the T. thermophilus CzrB protein to pump zinc ions out of the E. coli cells in which it was expressed was investigated. Intracellular zinc concentrations were measured as follows: E. coli clones were grown at 37° C. in LB medium (100 μg/ml ampicillin, 25 μg/ml streptomycin) in the presence or absence of 165 μM ZnCl2 until an OD600 of 1.0 was reached. After addition of 1, 2 or 5 mM ZnCl2, growth was continued for 30 min, 1 h or 2 h, with control cultures grown in the absence of ZnCl2. […] The zinc concentration was measured in the supernatant using an atomic absorption spectrophotometer (Varian SpectrAA-400 Plus), with standard solutions prepared immediately before use from commercial standards (Fisher Scientific). […] The results are shown in FIG. 3 which depicts a quantification of intracellular zinc levels in E. coli clones: JM83 (“JM83”), JM83 containing pUC (“pUC”), and JM83 containing pUC-czrB without (“czrB”) and with (“czrB (Zn)”) a zinc pre-induction step. […]

E. coli cells [7] = assay: Growth of E. coli with czrB expressed from lac promoter in pUC-based vector; conditions: Plac induction; no bacteriophage, no recombinant antibody
From the text: To investigate this theory further, czrB was expressed from a lac promoter in a standard pUC-based expression vector, in the absence of bacteriophage particles and the recombinant antibody used in experiments thus far. […] This raises the possibility that CzrB, in its full length form or as a truncated version, might function as an “universal chaperone”, which would facilitate the expression of any recombinant or heterologous proteins produced in an E. coli host.

[8] = clone +pUC, pre-induction cadmium (80 μM CdCl2)
[9] = clone +pUC, pre-induction cobalt (220 μM CoCl2)
[10] = clone +pUC, pre-induction none, 40 h at 37° C.
[11] = clone +pUC, pre-induction zinc (165 μM ZnCl2)
[12] = pre-induction cadmium (80 μM CdCl2)
[13] = pre-induction cobalt (220 μM CoCl2)
[14] = pre-induction zinc (165 μM ZnCl2)

Molecule | MIC (E. coli JM83; clone JM83, pre-induction none) | MIC [1, 8] | MIC [1, 9] | MIC [1, 10] | MIC [1, 11] | MIC [2, 12] | MIC [2, 13] | MIC ([2]; pre-induction none) | MIC [2, 14] | MIC (E. coli JM83) | MIC [1] | MIC ([1]; 40 h at 37° C.) | phage titres relative to cultures containing the vector alone (E. coli cultures [3]) | amount of functional antibody relative to cultures containing the vector alone (E. coli cultures [4]) | growth characteristics (E. coli cells [5]) | cell densities attained relative to cells containing just the phagemid vector (E. coli cells [5]) | levels of zinc in E. coli cells (E. coli cells [6]) | E. coli cell growth relative to cells containing the vector alone (E. coli cells [7])
[Cl-].[Cl-].[Zn+2] [Zinc, ZnCl2] | 2000 µM | 1600 µM | 1600 µM | 1600 µM | 1600 µM | 2200 µM | 2100 µM | 1900 µM | 2500 µM | – | – | – | – | – | – | – | – | –
[Cl][Cd][Cl] [Cadmium, CdCl2] | 900 µM | 700 µM | 900 µM | 900 µM | 900 µM | 900 µM | 1100 µM | 1000 µM | 1000 µM | – | – | – | – | – | – | – | – | –
[Cl-].[Cl-].[Co+2] [Cobalt, CoCl2] | – | – | – | – | – | 2100 µM | 2100 µM | 2100 µM | 2100 µM | 2100 µM | 2100 µM | 2100 µM | – | – | – | – | – | –
partial czrB: Truncated form of the CzrB protein, 92 amino acids (SEQ ID NO: 2), C-terminal cytoplasmic tail (protein, Thermus thermophilus CzrB) MDEGLPPEEVERIRAFLQERIRGRALEVHDLKTRRAGPRSFLEFHLVVRGDTPVEEAHRLCDELERALAQAFPGLQATIHVEPEGERKRTNP | – | – | – | – | – | – | – | – | – | – | – | – | intermediate between the full-length gene and the control culture | intermediate between the full-length gene and the control culture | intermediate between the full-length czrB clone and cells containing the phagemid vector | – | – | –
czrB: Polypeptide factor from Thermus thermophilus, 291 amino acids (SEQ ID NO: 1), co-expressed in E. coli (protein, Thermus thermophilus CzrB) MAEGAARLSLVVALLVLGLKAFAYLLTGSVALLSDALESLVNVAAALAALLALRVARKPPDQNHPFGHTKAEYVSAVLEGVLVVLAALWIAREALPRLLHPVPLEGLGLGLGVSLLASLLNGLLAYHLLKEGRRHRSPALTADGYHVLSDVLTSLGVVLGVGLAGLTGLWVLDPLLALAVAGQILFLGYRIVRESVGGLMDEGLPPEEVERIRAFLQERIRGRALEVHDLKTRRAGPRSFLEFHLVVRGDTPVEEAHRLCDELERALAQAFPGLQATIHVEPEGERKRTNP | – | – | – | – | – | – | – | – | – | – | – | – | two-fold higher | more than twice | – | greater than 2 fold | significantly reduce | same pattern of E. coli cell growth
